Test results taken from PMC6944458, “Intracellular and in vivo evaluation of imidazo[2,1-b]thiazole-5-carboxamide anti-tuberculosis compounds” (PLoS ONE, 2020).
pIC50: −log10 of the molar value. In brackets after ≈: the same amount, converted by molar mass. Where two headings read alike, the source gives them in different places.

Legend:
[1] = tested on: M. tuberculosis strain H37Rv-LUX; test: microbe, parasite or virus in culture; format: cell-based; conditions: Mycobacterium tuberculosis, read-out: LORA MIC
[2] = tested on: H37Rv-Mtb; test: MIC against replicating H37Rv-Mtb in liquid media; format: cell-based, Mycobacterium tuberculosis; conditions: Mycobacterium tuberculosis, H37RV, 120 h, replicating, 5 days, OD590
[3] = tested on: M. tuberculosis GC1237 (Mtb-GFP) in Raw 264.7 macrophages; conditions: cited from earlier work
[4] = tested on: VERO cell line; test: Eukaryotic cytotoxicity (CellTiter-Glo); format: cell-based, African green monkey; conditions: Chlorocebus sabaeus, 48 h, 2-day incubation, read-out: VERO Toxicity IC50
Procedure: Cytotoxicity was tested against the African green monkey adult kidney cell line (VERO, ATCC CRL-1586) as described. Compounds were tested as 10-point, 3-fold serial dilutions in DMSO (final assay concentration of 1% DMSO) and viability was measured using CellTiter-Glo (Promega). Inhibition curves were fitted using the Levenberg–Marquardt algorithm. IC50 was defined as the concentration required to reduce cell viability by 50% after 2-day incubation.

[5] = physchem; conditions: pH 6.8, aqueous buffer, kinetic from dmso stock
Procedure: (§2) The relative solubility of compounds was determined in microbiological medium using turbidity as a measure [27]. A serial dilution of compounds was prepared in DMSO and then transferred to microbiological medium at pH 6.8.

[6] = tested on: M. tuberculosis GC1237 (Mtb-GFP) in Raw 264.7 macrophages; test: Intracellular mycobacterial replication assay in macrophages; format: cell-based; conditions: Mycobacterium tuberculosis, 120 h, 5 days, read-out: MIC, intracellular M. tuberculosis growth in macrophages
[7] = in vivo; cited from earlier work
[8] = tested on: murine Raw 264.7 macrophages; conditions: mouse
[9] = Single dose plasma PK; format: in vivo, Balb/c mice
Procedure: Basic pharmacokinetic analysis was determined after a single dose of 200 mg/kg with and without the administration of 100 mg/kg of 1-aminobenzotriazole (ABT) (Sigma, #A3940) given 2 hr by gavage prior to ND-11543 administration. ABT (100 mg/kg dose) was administered by oral gavage in 0.5% (w/v) methyl cellulose 400 solution. ND-11543 (200 mg/kg dose) was prepared in 20% TPGS and dosed orally 2 hr after ABT administration. Female mice (6–8 week old Balb/c from Charles River) were rested one to two weeks before dosing. Blood was collected from the mice at time points of 0.5, 2, 4, 8, 12 and 24 hr after drug administration. Blood samples (< 100 μL each) for all time points were collected via the mandibular vein in plasma collector tubes, centrifuged and plasma (< 50 μL each) was frozen until further use. Plasma samples were analyzed by LC/MS to determine drug plasma levels.

[10] = tested on: CYP2B6, CYP2C8, CYP2C9, CYP2C19, CYP2D6, CYP3A4; test: in vitro; format: in vitro ADME; conditions: human; range over isoforms, >10 to >20; read-out: IC50 against all the major cytochrome P450 isoforms
Procedure: (§1) Compounds were tested for inhibition of six cytochrome P450 enzyme isoforms—CYP2B6, CYP2C8, CYP2C9, CYP2C19, CYP2D6 and CYP3A4 [27]. For each assay, human liver microsomes were incubated with a probe substrate for each CYP isoform in the presence of compound. Compounds were prepared as a 7-point dilution series in acetonitrile:DMSO (9:1). The final DMSO content in the reaction mixture was equal in all solutions used within an assay and was < 0.2%. Samples were run in duplicate.

[11] = tested on: M. tuberculosis Erdman; test: Chronic Balb/c model of TB infection; format: in vivo, Balb/c mice; conditions: 200 mg/kg
[12] = target: T1, CYP2C19 (Homo sapiens, UniProt P33261); test: biochemical; format: in vitro ADME; conditions: human liver microsomes; read-out: Cytochrome P450 Inhibition IC50 CYP2C19
T1 construct: human liver microsomes were incubated with a probe substrate for each CYP isoform; from tissue; host or cells: human liver microsomes
T1 sequence (P33261 whole entry, canonical isoform): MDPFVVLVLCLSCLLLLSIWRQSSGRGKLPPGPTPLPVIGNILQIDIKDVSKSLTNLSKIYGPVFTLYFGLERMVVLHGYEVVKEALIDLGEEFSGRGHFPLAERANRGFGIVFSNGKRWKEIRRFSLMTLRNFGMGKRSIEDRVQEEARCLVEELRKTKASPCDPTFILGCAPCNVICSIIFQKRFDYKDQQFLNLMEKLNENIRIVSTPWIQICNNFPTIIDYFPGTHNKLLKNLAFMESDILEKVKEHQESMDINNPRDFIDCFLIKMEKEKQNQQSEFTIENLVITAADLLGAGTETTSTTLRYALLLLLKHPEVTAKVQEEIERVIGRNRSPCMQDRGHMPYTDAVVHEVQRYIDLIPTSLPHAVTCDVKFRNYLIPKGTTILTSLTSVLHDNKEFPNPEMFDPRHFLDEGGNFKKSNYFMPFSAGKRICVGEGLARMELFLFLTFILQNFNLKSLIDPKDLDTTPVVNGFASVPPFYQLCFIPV
Procedure: as §1

[13] = target: T2, CYP2B6 (Homo sapiens, UniProt P20813); test: biochemical; format: in vitro ADME; conditions: human liver microsomes; read-out: Cytochrome P450 Inhibition IC50 CYP2B6
T2 construct: human liver microsomes were incubated with a probe substrate for each CYP isoform; from tissue; host or cells: human liver microsomes
T2 sequence (P20813 whole entry, canonical isoform): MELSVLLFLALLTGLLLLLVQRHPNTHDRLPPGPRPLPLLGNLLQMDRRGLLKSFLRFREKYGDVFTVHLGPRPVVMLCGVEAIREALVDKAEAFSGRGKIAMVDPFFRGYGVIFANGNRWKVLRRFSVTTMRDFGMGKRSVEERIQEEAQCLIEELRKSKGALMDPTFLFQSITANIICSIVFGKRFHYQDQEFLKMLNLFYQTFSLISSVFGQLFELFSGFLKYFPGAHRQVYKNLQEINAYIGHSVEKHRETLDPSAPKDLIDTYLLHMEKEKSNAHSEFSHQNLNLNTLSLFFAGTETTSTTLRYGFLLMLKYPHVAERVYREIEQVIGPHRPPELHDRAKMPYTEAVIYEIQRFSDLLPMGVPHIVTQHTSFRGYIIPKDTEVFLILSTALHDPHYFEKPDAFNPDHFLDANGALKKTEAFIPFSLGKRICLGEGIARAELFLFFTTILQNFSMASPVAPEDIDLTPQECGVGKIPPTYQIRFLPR
Procedure: as §1

[14] = target: T3, CYP2D6 (Homo sapiens, UniProt P10635); test: biochemical; format: in vitro ADME; conditions: human liver microsomes; read-out: Cytochrome P450 Inhibition IC50 CYP2D6
T3 construct: human liver microsomes were incubated with a probe substrate for each CYP isoform; from tissue; host or cells: human liver microsomes
T3 sequence (P10635 whole entry, canonical isoform): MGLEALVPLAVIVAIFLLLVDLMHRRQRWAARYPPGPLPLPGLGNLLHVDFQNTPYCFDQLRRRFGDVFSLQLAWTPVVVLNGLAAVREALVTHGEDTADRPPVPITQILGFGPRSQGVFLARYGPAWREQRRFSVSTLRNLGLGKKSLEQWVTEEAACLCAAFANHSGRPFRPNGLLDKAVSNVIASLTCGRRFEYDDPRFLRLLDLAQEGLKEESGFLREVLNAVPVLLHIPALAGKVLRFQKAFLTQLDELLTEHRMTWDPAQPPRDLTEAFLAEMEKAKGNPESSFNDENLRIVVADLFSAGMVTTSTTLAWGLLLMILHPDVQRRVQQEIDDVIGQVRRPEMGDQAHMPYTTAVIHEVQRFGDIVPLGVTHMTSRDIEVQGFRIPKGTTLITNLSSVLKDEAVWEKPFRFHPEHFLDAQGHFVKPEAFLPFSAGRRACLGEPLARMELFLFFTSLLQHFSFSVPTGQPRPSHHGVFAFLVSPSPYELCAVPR
Procedure: as §1

[15] = target: T4, CYP3A4 (Homo sapiens, UniProt P08684); test: biochemical; format: in vitro ADME
T4 construct: human liver microsomes were incubated with a probe substrate for each CYP isoform; from tissue; host or cells: human liver microsomes
T4 sequence (P08684 whole entry, canonical isoform): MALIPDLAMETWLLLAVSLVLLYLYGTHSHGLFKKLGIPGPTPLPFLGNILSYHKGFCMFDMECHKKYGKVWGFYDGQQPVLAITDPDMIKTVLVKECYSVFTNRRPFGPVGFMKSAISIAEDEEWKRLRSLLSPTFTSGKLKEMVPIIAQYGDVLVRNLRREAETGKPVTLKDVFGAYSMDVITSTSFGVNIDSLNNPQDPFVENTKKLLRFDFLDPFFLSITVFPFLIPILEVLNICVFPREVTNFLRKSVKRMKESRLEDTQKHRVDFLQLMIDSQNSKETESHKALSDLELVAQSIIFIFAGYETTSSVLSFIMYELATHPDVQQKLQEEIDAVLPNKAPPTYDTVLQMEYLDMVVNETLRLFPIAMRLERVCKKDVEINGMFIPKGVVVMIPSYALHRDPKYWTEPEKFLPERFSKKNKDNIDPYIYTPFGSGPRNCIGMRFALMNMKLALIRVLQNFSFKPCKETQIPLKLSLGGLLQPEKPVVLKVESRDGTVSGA
Procedure: as §1

[16] = target: T5, CYP2C9 (Homo sapiens, UniProt P11712); test: biochemical; format: in vitro ADME; conditions: human liver microsomes; read-out: Cytochrome P450 Inhibition IC50 CYP2C9
T5 construct: human liver microsomes were incubated with a probe substrate for each CYP isoform; from tissue; host or cells: human liver microsomes
T5 sequence (P11712 whole entry, canonical isoform): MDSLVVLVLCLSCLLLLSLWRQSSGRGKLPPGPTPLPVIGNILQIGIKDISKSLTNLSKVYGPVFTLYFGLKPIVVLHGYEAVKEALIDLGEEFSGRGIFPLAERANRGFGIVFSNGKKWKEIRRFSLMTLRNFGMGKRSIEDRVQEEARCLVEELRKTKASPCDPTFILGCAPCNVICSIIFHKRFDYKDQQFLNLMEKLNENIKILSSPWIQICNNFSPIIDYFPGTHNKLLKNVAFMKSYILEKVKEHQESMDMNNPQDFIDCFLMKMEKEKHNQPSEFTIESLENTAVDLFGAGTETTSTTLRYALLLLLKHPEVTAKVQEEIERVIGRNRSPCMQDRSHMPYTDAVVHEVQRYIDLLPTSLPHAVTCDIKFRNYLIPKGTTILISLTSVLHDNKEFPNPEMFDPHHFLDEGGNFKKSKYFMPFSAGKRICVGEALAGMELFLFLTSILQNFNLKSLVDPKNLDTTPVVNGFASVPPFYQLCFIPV
Procedure: as §1

[17] = target: T6, CYP2C8 (Homo sapiens, UniProt P10632); test: biochemical; format: in vitro ADME; conditions: human liver microsomes; read-out: Cytochrome P450 Inhibition IC50 CYP2C8
T6 construct: human liver microsomes were incubated with a probe substrate for each CYP isoform; from tissue; host or cells: human liver microsomes
T6 sequence (P10632 whole entry, canonical isoform): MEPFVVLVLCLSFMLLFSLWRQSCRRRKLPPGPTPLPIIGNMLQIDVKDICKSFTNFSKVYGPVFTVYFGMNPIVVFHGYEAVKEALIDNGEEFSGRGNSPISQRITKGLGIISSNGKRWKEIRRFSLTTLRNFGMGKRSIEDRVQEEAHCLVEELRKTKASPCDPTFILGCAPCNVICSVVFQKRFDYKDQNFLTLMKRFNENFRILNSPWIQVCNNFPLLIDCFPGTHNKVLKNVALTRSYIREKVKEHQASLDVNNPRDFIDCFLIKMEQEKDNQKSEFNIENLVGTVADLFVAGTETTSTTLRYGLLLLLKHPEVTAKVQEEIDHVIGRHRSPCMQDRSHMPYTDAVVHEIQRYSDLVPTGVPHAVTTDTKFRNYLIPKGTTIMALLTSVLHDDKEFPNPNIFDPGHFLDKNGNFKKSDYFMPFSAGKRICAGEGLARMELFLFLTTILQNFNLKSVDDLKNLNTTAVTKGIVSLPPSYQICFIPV
Procedure: as §1

[18] = in vivo; design: species or system Balb/c mice
Procedure: ND-11543 was dissolved in 20% TPGS (d-α tocopheryl polyethylene glycol 1000 succinate) to give a fine white suspension which was dosed at 100, 300 and 500 mg/kg orally on three consecutive days, 3 mice per dose group. Mice were observed 10 min, 1, 2, 4 hr after dosing and then daily afterwards. During the observations, humane handling practices and animal welfare regulations were strictly followed.

[19] = in vitro; format: in vitro ADME; conditions: human, s9, NADPH, 37°C
Procedure: Compounds were tested for microsomal stability using pooled human liver S9 microsomes. Microsomes were incubated with the test compound at 37°C in the presence of the co-factor NADPH. The reaction was terminated, the supernatant recovered, and test compounds quantified by LC-MS/MS. A fixed concentration of test compound was tested in duplicate at 5 timepoints and compound stability was expressed as a function of time. Human liver microsomes were purchased from Celsis (catalog number X008068).

[20] = in vitro; conditions: human, Caco-2
[21] = Relative solubility by turbidity in microbiological medium; conditions: pH 6.8, aqueous buffer, kinetic from dmso stock, lowest concentration at which compound was insoluble (turbidity)
Procedure: as §2

## CCc1nc2ccc(Cl)cn2c1C(=O)NCc1ccc(N2CCC(c3ccc(OC(F)(F)F)cc3)CC2)cc1 [Q203]
[1]
  MIC: 1.3 µM (≈ 0.724 µg/mL)
[2]
  MIC: 0.005 µM (≈ 0.00279 µg/mL)
[3]
  MIC, intracellular, previous reports: < 0.098 µM
[4]
  pIC50: < 4.30
[5]
  solubility: 100 µM (≈ 55.7 µg/mL)
[6]
  MIC: 0.0078 µM (≈ 0.00434 µg/mL)
[7]
  AUC 0–24: 44,100 ng·hr/mL

## Cc1cn2c(C(=O)NCc3ccc(N4CCN(c5ccc(C(F)(F)F)cn5)CC4)c(F)c3)c(C)nc2s1 [ND-11543, N-(3-fluoro-4-(4-(5-(trifluoromethyl)pyridin-2-yl)piperazin-1-yl)benzyl)-2,6-dimethylimidazo[2,1-b]thiazole-5-carboxamide]
[1]
  MIC: 1.1 µM (≈ 0.586 µg/mL)
[2]
  MIC: 0.008 µM (≈ 0.00426 µg/mL)
[8]
  Macrophage toxicity concentration relative to MIC: 4 and 8-fold higher than their MIC
[9]; 200 mg/kg oral, without ABT
  AUC(0–24)/Dose: 58.5 ng·h/mL/mg/kg
  Cmax/Dose: 3.22 ng/mL/mg/kg
[9]; female, Balb/c, mouse, in vivo
  Relative Bioavailability [(TA+ABT) / TA]: 318.25
[9]; female, Balb/c, mouse, plasma, 200 mg/kg oral, without ABT
  half-life: > 1440 min
[10]
  pIC50: < 5.00
[11]; 4 weeks, without ABT
  Log reduction vs Control (Lung): 0.30 log10 CFU
  Log reduction vs Control (Spleen): 0.36 log10 CFU
[11]; ERDMAN, 672 h
  Lung Log10 CFU ±SEM: 5.49 ± 0.08 Log10 CFU
  Spleen Log10 CFU ±SEM: 4.64 ± 0.11 Log10 CFU
[4]
  pIC50: < 4.30
[6]
  MIC: 0.0625 µM (≈ 0.0333 µg/mL)
[12]
  pIC50: < 4.70
[13]
  pIC50: < 4.70
[14]
  pIC50: < 4.70
[15]; DDI assay including midazolam, read-out: Cytochrome P450 Inhibition IC50 CYP3A4 (midazolam)
  pIC50: < 4.70
[15]; DDI assay including tetosterone, read-out: Cytochrome P450 Inhibition IC50 CYP3A4 (tetosterone)
  pIC50: < 4.70
[16]
  pIC50: 4.99
[17]
  pIC50: 4.74
[18]; female, Balb/c, mouse, in vivo, mice, oral, three consecutive daily doses, read-out: Maximum Tolerated Dose, MTD
  MTD: > 500 mg/kg
[18]; mice, 100, 300 and 500 mg/kg oral
  Acute toxicity observation: No acute toxicity was observed
[19]; read-out: Human liver S9 Microsomes CL
  microsomal CLint: 81.3 µL/min/mg
[19]; read-out: Human liver S9 Microsomes T ½
  half-life: 28.4 min
[20]
  Papp A→B at 1 h: 0.376 ×10⁻⁶ cm/s
  Papp A→B at 2 h: 0.731 ×10⁻⁶ cm/s
  Papp B→A at 1 h: 1.09 ×10⁻⁶ cm/s
  Papp B→A at 2 h: 0.758 ×10⁻⁶ cm/s
  efflux ratio: 2.23
[21]
  solubility: 50 µM (≈ 26.6 µg/mL)
